Literature values as cited in US20060073224A1, “Method of preparing Dioscorea tincture and uses thereof” (Omni Research Technology, priority 2004, published 2006).

Conditions: purified crystalline powder

C[C@@H]1CC[C@@]2(OC1)O[C@H]1C[C@H]3[C@@H]4CC=C5C[C@@H](O)CC[C@]5(C)[C@H]4CC[C@]3(C)[C@H]1[C@@H]2C [diosgenin]
insolubility in alcohol: about 0.2%
